Patent US7855188B2, “Quarternized amino glucosamine compound for exerting anticancer effect” (Pukyong National University Industry-Academic Cooperation …, priority 2006, dated 2010)

Tests used:
B16F1 cells [1] = assay: FACS analysis of apoptotic cells; type: cell-based, mouse
[2] = tested on: colon cancer cell (SW480), lung cancer cell (A549), mouse melanoma cell (B16F1), leukemia cancer cell (HL60) and liver cancer cell (Hep3B); assay: MTT cell viability assay on various cancer cells; type: cell-based; conditions: after 36 h of treatment; effect concentration dependent; serum free media
Procedure: (§1) In order to assay the cell cytotoxicity of glucosamine and quaternized amino glucosamine on colon cancer cell (SW480), lung cancer cell (A549), mouse melanoma cell (B16F1), leukemia cancer cell (HL60) and liver cancer cell (Hep3B), MTT assay was performed with different sample concentrations and incubation time intervals.
(§2) Cells were cultured in microtiter 96-well plates with serum free media and treated with different sample concentrations for varying time intervals and anticancer effect was assessed using MTT cell viability assay. The result was represented in FIG. 2. […] Moreover, the effect was concentration dependent.

B16F1 cells [3] = assay: Detection of apoptosis by DNA fragmentation assay; type: cell-based, mouse
Procedure: In order to examine anticancer effect and mechanism of QAGlc, B16F1 cells cultured in 10 cm culture dishes were pre-treated with different concentrations of QAGlc and apoptosis was induced with 2 mM H2O2. Then, cell incubation was performed for different time periods. Cell was rinsed and total DNA was extracted with the standard procedure. DNA was electrophoresed on a 2% agarose gel and DNA fraction was visualized using ethedium bromide staining. The result was represented in FIG. 3.
B16F1 cells cultured in 10 cm culture dishes were pretreated with different concentrations of QAGlc and apoptosis was induced with 2 mM H2O2. After incubating for 48 h, genomic DNA was extracted and electrophoresed on a 2% agarose gel. The result was represented in FIG. 4.

p53 = assay: RT-PCR of p53 mRNA; type: cell-based, mouse; conditions: B16F1 cells
Procedure: (§3) B16F1 cells were treated with QAGlc and total RNA was extracted. PCR was carried out using RT-generated cDNA encoding p53, p21 and GSPDH with their specific primers to amplify p53 and G3PDH mRNA. PCR products were analyzed on a 2% agarose gel. The mRNA of G3PDH served as an internal control for sample loading and mRNA integrity. The result was represented in FIG. 5.

p21 gene = assay: p21-Luc gene reporter assay; type: cell-based, mouse; conditions: B16F1 cells; all concentrations; compared to the control
Procedure: (§4) B16F1 cells were transfected with p53-luc, p21-Luc reporter vectors and β-galactosidase expression vector by lipofectamine (Invitrogen) transfection method. After 24 h of transfection, cells were subcultured into 24 well plates and cells treated with different concentrations of QAGlc. The luciferase activity value was normalized to transfection efficiency monitored by the cotransfected β-galactosidase expression vector. The level of induction of luciferase was determined as a ratio in comparison to cells with no stimulation. The result was represented in FIG. 6.
According to the method described above, p21 gene was transfected to B16F1 cells according to the method described above and gene expression after the treatment of QAGlc was determined by relative luciferase activity. The result was represented in FIG. 7.

phospho p53 protein = assay: Western blot analysis of phospho p53; type: cell-based, mouse; conditions: B16F1 cells; different time intervals
Procedure: After treatment of QAGlc for different time intervals, cells were lysed in RIPA buffer [10 mmol Tris-HCL (pH 7.4), 1% deoxycholate, 1% NP40, 150 mmol NaCl, 0.1% SDS, 0.2 mmol phenylmethyl sulfonyl fluoride, 1 mg/L aprotinin and 1 mg/L leupeptin] for 30 min on ice. The lysates were centrifuged at 12,000×g for 15 min to remove debris. Protein samples were resolved using a […] Novex gradient gel (Invitrogen, USA), electrotransferred onto a nitrocellulose membrane, and blocked with 10% skim milk. Monoclonal antibodies of phosphorylated p-53 (Cat. No, Chemicon, CA, USA) were used to detect phosphor-p53 protein using chemiluminescent ECL assay kit (Amersham Pharmacia Biosciences, NJ, USA) according to the manufacturer's instructions. Western blot bands were quantified using ImageMaster software (Amersham Pharmacia Biosciences, NJ, USA). The result was represented in FIG. 8.

p53 gene = assay: p53-luc gene reporter assay; type: cell-based, mouse; conditions: B16F1 cells
Procedure: as §4

p21 = assay: RT-PCR of p21 mRNA; type: cell-based, mouse; conditions: B16F1 cells; time dependant
Procedure: as §3

B16F1 cells [4] = assay: MTT cytotoxicity assay in B16F1 cells; type: cell-based, mouse; conditions: after 48 h of incubation, concentrations below 0.01%
Procedure: as §1, §2
B16F1 cells were treated with different concentrations of quaternized amino glucosamine and cytotoxicity was determined using MTT assay. […] This effect could be confirmed when the B16F1 cells were transfected with promoter plasmids of p53 and p21 treated with different concentrations of QAGlc. Induction of phosphor p53 observed in western blot analysis further confirmed that quaternized amino glucosamine induce apoptosis via p53 dependant pathway.

[5] = after 24 h and 36 h of incubation

Q: `C[N+](C)(C)CC(O)CNC1[C@H](O)OC(CO)[C@@H](O)[C@H]1O` (stereo partly drawn) [QAGlc, quaternized amino glucosamine] was tested. Which “production of apoptotic cells” value (B16F1 cells [1]) did it give?
A: Its value is “increase the production of apoptotic cells”.

Q: What about the “anticancer effect (cell cytotoxicity, MTT)” value [2] of the same compound?
A: The value was “clear anticancer effect”.

Q: What about the “incubation time after which DNA damage was first observed” value (B16F1 cells [3]; 100 μg/ml, apoptosis induced with 2 mM H2O2) of the same compound?
A: The value was 36 h.

Q: And the “DNA damage (DNA fragmentation)” value (B16F1 cells [3]; 48 h incubation, 100 μg/ml)?
A: The value was “higher DNA damage”.

Q: What about the “DNA damage (DNA fragmentation)” value (B16F1 cells [3]; 48 h incubation, different concentrations, 2 mM H2O2) of the same compound?
A: The value was “higher DNA damage dose-dependently”.

Q: What about the “DNA damage (DNA fragmentation)” value (B16F1 cells [3]; prolonged incubation (after 36 h), all tested concentrations) of the same compound?
A: Its value is “clear effect DNA damage by all the tested concentrations dose-dependently”.

Q: And the p53 transcription (p53; [5])?
A: The p53 transcription was “up-regulated”.

Q: What about the “p53 transcription compared with etoposide” value (p53; [5]) of the same compound?
A: Its value is “much higher than that of etoposide”.

Q: And the “induction of p53 gene (RT-PCR products)” value (p53; time dependant)?
A: The value was “induction of p53 and p21 genes in time dependant manner”.

Q: What about the “p21 gene expression (relative luciferase activity)” value (p21 gene) of the same compound?
A: The value was “significantly enhanced”.

Q: What about the “phospho p53 protein level” value (phospho p53 protein) of the same compound?
A: The value was “increase phospho p53 protein level in a time dependant manner”.

Q: And the “p53 gene expression effect relative to etaposide” value (p53 gene; 100 μg/ml)?
A: The value was 2 fold.

Q: And the “p53 gene expression (luciferase reporter)” value (p53 gene; different concentrations)?
A: Its value is “up-regulated dose dependently”.

Q: And the “induction of p21 gene (RT-PCR products)” value (p21)?
A: The value was “induction of p53 and p21 genes in time dependant manner”.

Q: And the “anticancer effect (cytotoxicity, MTT)” value (B16F1 cells [4])?
A: Its value is “clear anticancer effect was observed”.
